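Dose response: 5 concentrations. Exposure: 48 h. Format: 96-well plates. Endpoint: linear interpolation; highest concentration if not reached. At the GI50, growth is halved. TGI: concentration producing complete growth inhibition.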
What was measured:
Test in all cases: DTP human tumour cell line panel, 48 h
HOP-92 NSCLC = test system: HOP-92 NSCLC
SW-620 colon = test system: SW-620 colon
RPMI-8226 leukemia = test system: RPMI-8226 leukemia
K-562 leukemia = test system: K-562 leukemia
SK-MEL-28 melanoma = test system: SK-MEL-28 melanoma
786-0 renal = test system: 786-0 renal
NCI-H226 lung = test system: NCI-H226 lung
U251 CNS = test system: U251 CNS
SNB-19 CNS = test system: SNB-19 CNS
HOP-62 NSCLC = test system: HOP-62 NSCLC
M14 melanoma = test system: M14 melanoma
HS 578T breast = test system: HS 578T breast
HT29 colon = test system: HT29 colon
BT-549 breast = test system: BT-549 breast
NCI-H522 lung = test system: NCI-H522 lung
UACC-257 melanoma = test system: UACC-257 melanoma
IGROV1 ovarian = test system: IGROV1 ovarian
HCT-116 colon = test system: HCT-116 colon
PC-3 prostate = test system: PC-3 prostate

Row | SMILES | TGI (HOP-92 NSCLC) [µM] | TGI (SW-620 colon) [µM] | TGI (RPMI-8226 leukemia) [µM] | TGI (K-562 leukemia) [µM] | TGI (SK-MEL-28 melanoma) [µM] | TGI (786-0 renal) [µM] | TGI (NCI-H226 lung) [µM] | TGI (U251 CNS) [µM] | TGI (SNB-19 CNS) [µM] | TGI (HOP-62 NSCLC) [µM] | TGI (M14 melanoma) [µM] | TGI (HS 578T breast) [µM] | TGI (HT29 colon) [µM] | TGI (BT-549 breast) [µM] | TGI (NCI-H522 lung) [µM] | TGI (UACC-257 melanoma) [µM] | TGI (IGROV1 ovarian) [µM] | TGI (HCT-116 colon) [µM] | TGI (PC-3 prostate) [µM] | GI50 (HS 578T breast) [µM]
1 | CN(C)CCCNc1ccc2nnn3c4ccc([N+](=O)[O-])cc4c(=O)c1c23 | 7.45 | 12.9 | 7.31 | 21.9 | 17.2 | 13 | 3.02 | 5.16 | 15.3 | 8.51 | 8.31 | 14.2 | 7.11 | 19.2 | 17 | 16.7 | 13.3 | 12.3 | 11.7 | 
2 | CC(=O)CC(=O)Nn1c(-c2cccs2)nc2ccc(I)cc2c1=O | > 100 | > 100 | > 100 | > 100 | > 100 | > 100 | > 76.4 | > 100 | > 100 | > 100 | > 100 | 71.3 | > 100 | > 71 | > 87.5 | > 100 | > 100 | > 100 | > 100 | 18.9
3 | O=C1N[C@@H](c2c[nH]c3ccc(Br)cc23)C(=O)N[C@H]1c1c[nH]c2ccc(Br)cc12 | 15.5 | 26.2 | 38.2 | 18.9 | 28.5 | 25.6 | 26.9 | 21.9 | 49.2 | 27 | 21.2 | 34.3 | 20.2 | 35.4 | 24 | 26.8 | 29.4 | 21.8 | 16.1 | 
4 | O=C(c1ccccc1)c1cc(-c2ccccc2)c(-c2ccccc2)[nH]c(=O)c1=O | > 100 | > 100 | 60 | > 100 | > 100 | > 100 | > 100 | > 100 | > 100 | > 100 | > 100 | > 100 | > 100 | 53.1 | 74.4 | > 100 | > 100 | > 100 | > 100 | 
5 | COc1ccc(N=Nc2ccc3oc(=O)c(C(=O)Nc4ccc(OC)cc4)cc3c2)cc1 | 50.1 | 66.1 | 67.2 | > 100 | 41.1 | 44.5 | 32.8 | 30 | 83.1 | 30.3 | 43.5 | 89.9 | 55.5 | 39 | 75.6 | 73.9 | 44 | 23.8 | 43.1 | 
6 | CN1CCN(c2nc3c(c(=O)n(C)c(=O)n3C)n2C)CC1 | > 100 | > 100 | > 100 | > 100 | > 100 | > 100 | > 100 | > 100 | > 100 | > 100 | > 100 | > 100 | > 100 | > 100 | > 100 | > 100 | > 100 | > 100 | > 100 | 
